Assay results: US6559100B1, “2-benzoyl-cyclohexane-1,3-diones” (BASF Aktiengesellschaft, priority 1997, dated 2003)

Columns and labels:
Experiment in all cases: Greenhouse herbicidal activity, post-emergence treatment
Conditions in all cases: 0.5 or 0.25 kg/ha of a.s.
[1] = system: Chenopodium album; assay type: in vivo, Chenopodium album (lambsquarters, goosefoot)
Text: (§1) The culture containers used were plastic pots containing loamy sand with approximately 3.0% of humus as the substrate. The seeds of the test plants were sown separately for each species.
(§2) For the post-emergence treatment, the test plants were first grown to a height of 3 to 15 cm, depending on the plant habit, and only then treated with the active compounds which had been emulsified or suspended in water. The test plants were for this purpose either sown directly and grown in the same containers, or they were first grown separately as seedlings and transplanted into the test containers a few days prior to treatment. The application rate for the post-emergence treatment was 0.5 or 0.25 kg/ha of a.s.
(§3) Depending on the species, the plants were kept at 10-25° C. or 20-35° C. . The test period extended over 2 to 4 weeks. During this time, the plants were tended, and their response to the individual treatments was evaluated.
(§4) The evaluation was carried out using a scale from 0 to 100. 100 means no emergence of the plants, or complete destruction of at least the aerial parts, and 0 means no damage, or normal course of growth.
(§5) The plants used in the greenhouse trials were from the following species:
(§6) Herbicidal activity when employed by the post-emergence method (greenhouse) [drawing 20]

[2] = system: Setaria viridis; assay type: in vivo, Setaria viridis (green foxtail)
Text: as §1, §2, §3, §4, §5, §6

[3] = system: Solanum nigrum; assay type: in vivo, Solanum nigrum (black nightshade)
Text: as §1, §2, §3, §4, §5, §6

[4] = system: Sinapis alba; assay type: in vivo, Sinapis alba (white mustard)
Text: as §1, §2, §3, §4, §5, §6

Measured: control of the weed (herbicidal activity)

CC1(C)C(=O)C(C(=O)c2ccc(Cl)c(CC3=NOCC3)c2Cl)=C(O)C(C)(C)C1=O [Compound 37.2, 2,4-Dichloro-3-((4,5-dihydro-3-isoxazolylmethyl)phenyl)(3,3,6,6-tetramethylcyclohexane-1,3,5-trione)methanone]
very efficient control: all assays above
